Structures can show the parent of a compound that is named as a salt.
Tests used:
[1] = biological target: T1, Epidermal growth factor receptor (Homo sapiens, UniProt P00533); settings: at 50 nM
Description: Inhibition of wild type recombinant EGFR (unknown origin) at 50 nM by ELISA relative to control

[2] = Inhibition of recombinant alpha-glucosidase (unknown origin) using PNP-G as substrate preincubated for 5 mins followed by substrate addition measured after 30 mins by spectrophotometric analysis; parameters: species or system Homo sapiens
[3] = biological target: T1, Epidermal growth factor receptor; test: Inhibition of wild type recombinant EGFR (unknown origin) by ELISA

T1 sequence (P00533 whole entry): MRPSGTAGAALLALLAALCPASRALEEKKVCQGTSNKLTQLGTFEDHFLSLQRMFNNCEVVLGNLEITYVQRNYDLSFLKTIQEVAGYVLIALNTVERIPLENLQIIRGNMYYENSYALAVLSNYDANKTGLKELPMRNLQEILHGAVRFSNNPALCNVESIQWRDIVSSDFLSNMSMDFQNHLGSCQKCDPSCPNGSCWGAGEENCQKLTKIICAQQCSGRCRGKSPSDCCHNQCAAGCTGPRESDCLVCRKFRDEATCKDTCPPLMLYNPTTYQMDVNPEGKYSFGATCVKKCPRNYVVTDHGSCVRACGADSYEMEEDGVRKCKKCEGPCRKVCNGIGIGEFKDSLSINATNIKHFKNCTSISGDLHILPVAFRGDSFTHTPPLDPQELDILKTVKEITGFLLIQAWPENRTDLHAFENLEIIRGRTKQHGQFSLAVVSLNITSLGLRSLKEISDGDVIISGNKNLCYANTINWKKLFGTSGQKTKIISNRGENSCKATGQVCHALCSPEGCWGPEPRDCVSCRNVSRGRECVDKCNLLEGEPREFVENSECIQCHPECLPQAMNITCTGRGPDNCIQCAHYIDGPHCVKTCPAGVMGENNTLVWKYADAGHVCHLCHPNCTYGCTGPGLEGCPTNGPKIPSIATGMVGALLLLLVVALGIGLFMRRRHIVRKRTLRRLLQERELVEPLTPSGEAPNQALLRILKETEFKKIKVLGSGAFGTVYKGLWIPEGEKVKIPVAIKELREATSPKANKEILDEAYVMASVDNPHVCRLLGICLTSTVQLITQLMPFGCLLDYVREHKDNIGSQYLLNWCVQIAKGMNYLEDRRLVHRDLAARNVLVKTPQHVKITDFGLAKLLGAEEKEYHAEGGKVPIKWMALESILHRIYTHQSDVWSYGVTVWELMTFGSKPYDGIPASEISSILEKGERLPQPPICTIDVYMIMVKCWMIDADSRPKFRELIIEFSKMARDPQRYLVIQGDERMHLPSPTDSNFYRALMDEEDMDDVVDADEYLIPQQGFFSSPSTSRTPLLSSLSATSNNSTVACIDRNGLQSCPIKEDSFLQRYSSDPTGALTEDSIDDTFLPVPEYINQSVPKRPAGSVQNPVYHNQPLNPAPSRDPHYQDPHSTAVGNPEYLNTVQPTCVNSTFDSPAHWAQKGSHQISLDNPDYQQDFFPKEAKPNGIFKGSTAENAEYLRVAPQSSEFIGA

| Compound | inhibition [1] | IC50 [2] | IC50 [3] |
| --- | --- | --- | --- |
| C#Cc1cccc(Nc2ncnc3ccc(-c4ccc(CN5C[C@H](O)[C@@H](O)[C@H](O)[C@H]5CO)o4)cc23)c1 | 27.1% | – | – |
| COc1cc2ncnc(Nc3ccc(OCc4cccc(F)c4)c(Cl)c3)c2cc1OCCCN1C[C@H](O)[C@@H](O)[C@H](O)[C@H]1CO | 74.9% | 21200 nM | – |
| C#Cc1cccc(Nc2ncnc3cc(OCCN4C[C@H](O)[C@@H](O)[C@H](O)[C@H]4CO)c(OC)cc23)c1 | 53.5% | 6250 nM | – |
| COc1cc2ncnc(Nc3ccc(F)c(Cl)c3)c2cc1OCCN1C[C@H](O)[C@@H](O)[C@H](O)[C@H]1CO | 65.2% | 8400 nM | – |
| OC[C@@H]1[C@@H](O)[C@H](O)[C@@H](O)CN1Cc1ccc(-c2ccc3ncnc(Nc4ccc(OCc5cccc(F)c5)c(Cl)c4)c3c2)o1 | 50.6% | – | – |
| C#Cc1cccc(Nc2ncnc3cc(OC)c(OCCCN4C[C@H](O)[C@@H](O)[C@H](O)[C@H]4CO)cc23)c1 | 79.6% | 6190 nM | – |
| COc1cc2ncnc(Nc3ccc(OCc4cccc(F)c4)c(Cl)c3)c2cc1OCCN1C[C@H](O)[C@@H](O)[C@H](O)[C@H]1CO | 66.5% | 64100 nM | – |
| C#Cc1cccc(Nc2ncnc3cc(OC)c(OCCN4C[C@H](O)[C@@H](O)[C@H](O)[C@H]4CO)cc23)c1 | 56.4% | 7180 nM | – |
| OC[C@@H]1[C@@H](O)[C@H](O)[C@@H](O)CN1Cc1ccc(-c2ccc3ncnc(Nc4ccc(F)c(Cl)c4)c3c2)o1 | 78% | – | – |

The remaining lines, values ahead:

| inhibition [1] | IC50 [2] | IC50 [3] | Compound |
| --- | --- | --- | --- |
| 83.5% | 4340 nM | 10.7 nM | COc1cc2ncnc(Nc3ccc(F)c(Cl)c3)c2cc1OCCCN1C[C@H](O)[C@@H](O)[C@H](O)[C@H]1CO |
| 83.2% | 90 nM | 4.87 nM | C#Cc1cccc(Nc2ncnc3cc(OCCCN4C[C@H](O)[C@@H](O)[C@H](O)[C@H]4CO)c(OC)cc23)c1 |
| 85.3% | 390 nM | 1.79 nM | COc1cc2c(Nc3ccc(F)c(Cl)c3)ncnc2cc1OCCCN1C[C@H](O)[C@@H](O)[C@H](O)[C@H]1CO |
| 53.7% | 250 nM | – | COc1cc2c(Nc3ccc(F)c(Cl)c3)ncnc2cc1OCCN1C[C@H](O)[C@@H](O)[C@H](O)[C@H]1CO |
| – | 2430 nM | – | OCCN1C[C@H](O)[C@@H](O)[C@H](O)[C@H]1CO [MIGLITOL] |
| 78.2% | 140 nM | 4.53 nM | COc1cc2c(Nc3ccc(OCc4cccc(F)c4)c(Cl)c3)ncnc2cc1OCCCN1C[C@H](O)[C@@H](O)[C@H](O)[C@H]1CO |
| – | 70 nM | – | OC[C@H]1NC[C@H](O)[C@@H](O)[C@@H]1O [DUVOGLUSTAT HYDROCHLORIDE] |
